US8216973B2, “2-[(1H-pyrazole-4-ylmethyl)-sulfonyl]-oxazole-derivative, 2-[(1H-pyrazole-4-ylmethyl)-sulfanyl]-oxazole-derivatives, and chiral 2-[(1H-pyrazole-4-ymethyl)sulfinyl]oxazole derivatives, methods for the production thereof, and use thereof as herbicides and plant growth regulators” (Bayer Cropscience AG, priority 2008, dated 2012)

Tests used:
[1] = test system: harmful plants such as Avena fatua, Stellaria media, Echinochloa crus galli, Lolium multiflorum, Setaria viridis, Amaranthus retroflexus, Veronica persica …; assay: Pre-emergence herbicidal effect, greenhouse pot test; assay type: in vivo, monocotyledonous or dicotyledonous weed plants; settings: pre-emergence method, application rate of 0.32 kg and less of active substance per hectare, scored visually after about 3 weeks
From the text: 1. Pre-Emergence Herbicidal Effect and Crop Plant Compatibility
Seeds of monocotyledonous or dicotyledonous weed plants or crop plants are placed in sandy loam in wood-fiber pots and covered with soil. The compounds according to the invention, formulated in the form of wettable powders (WP), are then applied as aqueous suspension at a water application rate of 600 l/ha (converted) with the addition of 0.2% of wetting agent to the surface of the covering soil.
After the treatment, the pots are placed in a greenhouse and kept under good growth conditions for the test plants. After about 3 weeks, the effect of the preparations is scored visually in comparison with untreated controls (herbicidal effect in percent (%): 100% activity=the plants have died, 0% activity=like control plants).

[2] = test system: harmful plants such as Echinochloa crus galli, Lolium multiflorum, and Setaria viridis; assay: Post-emergence herbicidal effect, greenhouse pot test; assay type: in vivo, monocotyledonous and dicotyledonous weed plants; settings: post-emergence method, application rate of 0.32 kg and less of active substance per hectare, rated visually after about 3 weeks
Method: 2. Post-Emergence Herbicidal Effect and Crop Plant Compatibility
Seeds of monocotyledonous and dicotyledonous weed and crop plants are placed in sandy loam in wood-fiber pots, covered with soil and cultivated in a greenhouse under good growth conditions. 2 to 3 weeks after sowing, the test plants are treated at the one-leaf stage. The compounds according to the invention, formulated in the form of wettable powders (WP), are then sprayed as aqueous suspension at a water application rate of 600 l/ha (converted) with the addition of 0.2% of wetting agent onto the green parts of the plants. After the test plants have been kept in the greenhouse under optimum growth conditions for about 3 weeks, the activity of the preparations is rated visually in comparison to untreated controls (herbicidal activity in percent (%): 100% activity=the plants have died, 0% activity=like control plants).

Structure (SMILES)	herbicidal activity against harmful plants [1]	herbicidal activity against harmful plants [2]
Cn1nc(C(F)(F)F)c(C[S+]([O-])c2ncco2)c1OC(F)F (racemic) [compound 50, 2-({[5-(Difluoromethoxy)-1-methyl-3-(trifluoromethyl)-1H-pyrazol-4-yl]methyl}sulfinyl)-1,3-oxazole]	very good herbicidal activity	very good herbicidal activity
Cn1nc(C(F)(F)F)c(C[S+]([O-])c2ncco2)c1Cl (centres unmarked) [Compound No. 35, 2-({[5-(Chloro)-1-methyl-3-(trifluoromethyl)-1H-pyrazol-4-yl]methyl}sulfinyl)-1,3-oxazole]	very good herbicidal activity	very good herbicidal activity
Cn1nc(C(F)(F)F)c(C[S+]([O-])c2ncco2)c1C(F)(F)F (centres unmarked) [Compound No. 230, 2-({[1-Methyl-3,5-bis(trifluoromethyl)-1H-pyrazol-4-yl]methyl}sulfinyl)-1,3-oxazole]	very good herbicidal activity	very good herbicidal activity
Cn1nc(C(F)(F)F)c(C[S+]([O-])c2ncc(Cl)o2)c1OC(F)F (centres unmarked) [Compound No. 542, 5-Chloro-2-({[5-(difluoromethoxy)-1-methyl-3-(trifluoromethyl)-1H-pyrazol-4-yl]methyl}sulfinyl)-1,3-oxazole]	very good herbicidal activity	very good herbicidal activity
Cn1nc(C(F)(F)F)c(C[S+]([O-])c2ncc(Br)o2)c1OC(F)F (centres unmarked) [Compound No. 788, 5-Bromo-2-({[5-(difluoromethoxy)-1-methyl-3-(trifluoromethyl)-1H-pyrazol-4-yl]methyl}sulfinyl)-1,3-oxazole]	very good herbicidal activity	
Cn1nc(C(F)(F)F)c(CS(=O)(=O)c2ncc(Br)o2)c1OC(F)F [Compound No. 789, 5-Bromo-2-({[5-(difluoromethoxy)-1-methyl-3-(trifluoromethyl)-1H-pyrazol-4-yl]methyl}sulfonyl)-1,3-oxazole]	very good herbicidal activity	
Cn1nc(C(F)(F)F)c(C[S+]([O-])c2ncc(I)o2)c1OC(F)F (centres unmarked) [Compound No. 1034, 5-Iodo-2-({[5-(difluoromethoxy)-1-methyl-3-(trifluoromethyl)-1H-pyrazol-4-yl]methyl}sulfinyl)-1,3-oxazole]	very good herbicidal activity	
Cn1nc(C(F)(F)F)c(C[S@+]([O-])c2ncc(Cl)o2)c1OC(F)F [Compound No. 2449]	very good herbicidal activity	
Cn1nc(C(F)(F)F)c(C[S@+]([O-])c2ncc(Br)o2)c1OC(F)F [Compound No. 2531]	very good herbicidal activity	
Cn1nc(C(F)(F)F)c(CS(=O)(=O)c2ncco2)c1OC(F)F [compound 51, 2-({[5-(Difluoromethoxy)-1-methyl-3-(trifluoromethyl)-1H-pyrazol-4-yl]methyl}sulfonyl)-1,3-oxazole]	very good herbicidal activity	very good herbicidal activity
Cn1nc(C(F)(F)F)c(C[S@+]([O-])c2ncco2)c1OC(F)F [compound 2285, 2-[(S)-{[5-(Difluoromethoxy)-1-methyl-3-(trifluoromethyl)-1H-pyrazol-4-yl]methyl}sulfinyl]-1,3-oxazole]	very good herbicidal activity	very good herbicidal activity
